Data taken from patent US20250129069A1, “TRIAZOLO WRN INHIBITORS” (Nimbus Wadjet, Inc., priority 2023, published 2025).
Read-outs that look alike come from different tables or passages of the source.

How the values were obtained:
[1] = molecular target: human Werner helicase (WRN, amino acids 517-1235 with L1074F point mutation) (Homo sapiens (Human), UniProt Q14191, L1074F); test: WRN (BV08) ADP-Glo assay; format: biochemical; conditions: human WRN (aa 517-1235, L1074F), read-out: ADP-Glo_hWRN_IC50
Sequence of human Werner helicase (WRN, amino acids 517-1235 with L1074F point mutation) (Q14191 other isoform, or with tags, fused parts or gaps L1074F (already in the parent)): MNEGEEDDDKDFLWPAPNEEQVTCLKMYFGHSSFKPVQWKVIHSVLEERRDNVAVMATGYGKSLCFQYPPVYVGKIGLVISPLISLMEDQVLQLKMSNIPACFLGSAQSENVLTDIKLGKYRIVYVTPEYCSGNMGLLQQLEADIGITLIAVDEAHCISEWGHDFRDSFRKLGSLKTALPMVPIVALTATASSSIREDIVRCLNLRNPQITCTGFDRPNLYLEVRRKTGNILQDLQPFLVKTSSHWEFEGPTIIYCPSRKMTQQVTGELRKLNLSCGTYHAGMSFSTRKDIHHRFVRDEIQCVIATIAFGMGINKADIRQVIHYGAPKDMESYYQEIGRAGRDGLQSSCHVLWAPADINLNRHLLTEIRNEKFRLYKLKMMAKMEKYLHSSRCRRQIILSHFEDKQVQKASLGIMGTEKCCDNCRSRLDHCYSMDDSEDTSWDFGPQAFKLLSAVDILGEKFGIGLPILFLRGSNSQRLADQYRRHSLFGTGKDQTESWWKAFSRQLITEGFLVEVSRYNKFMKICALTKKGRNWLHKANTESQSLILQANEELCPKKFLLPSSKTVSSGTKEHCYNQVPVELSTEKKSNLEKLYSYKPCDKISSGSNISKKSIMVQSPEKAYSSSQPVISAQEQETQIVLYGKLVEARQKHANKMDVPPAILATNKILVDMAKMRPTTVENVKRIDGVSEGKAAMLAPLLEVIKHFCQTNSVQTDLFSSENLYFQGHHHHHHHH
Text: Bovine skin gelatin (BSG), dimethyl sulfoxide (DMSO), Pluronic F-127 and tris(2-carboxyethyl)phosphine hydrochloride solution (TCEP) were purchased from Sigma-Aldrich (St. Louis, MO) at the highest level of purity possible. Bicine buffer solution was purchased from Alfa Aesar (Tewksbury, MA) and compound NSC-617145 was purchased from Tocris (Minneapolis, MN). DNA duplex was synthesized at BGI (Shenzhen, China) and was composed of strand 1 with the sequence 5′-[…]-3′ (SEQ ID NO.: 1) and strand 2 with the sequence 5′-[…]-3′ (SEQ ID NO.: 2). DNA strands were annealed by heating to 95° C. for 5 minutes followed by slow cooling to room temperature. Compounds in 100% DMSO (0.1 μl) were spotted into a 384-well white polystyrene Optiplate-384 (Perkin Elmer; Waltham, MA) assay plate using a LabCyte Echo 550 (Agilent; Santa Clara, CA). DMSO (0.1 μl) was added to columns 12, rows A-H and column 24, rows I-P for the maximum signal control. Compound NSC-617145 (0.1 μl) was added to columns 12, rows I-P and 24, rows A-H for the minimum signal control (100% inhibition). Compounds/DMSO were preincubated for 15 minutes at 25° C. with 5 μl 2×WRN (BV08), prepared as described below, in assay buffer containing 20 mM Bicine (pH=7.5), 1 mM MgCl2, 10 mM KCl, 0.1% Pluronic F-127, 0.005% BSG, 1 mM TCEP. The reaction was initiated by the addition of 5 μl 2× substrate mixture in assay buffer and incubated for 60 minutes at 25° C. The final concentrations of the assay components were 0.15 nM WRN, 5 μM ATP, and 0.1 nM DNA duplex. The final DMSO concentration was 1% and the reference compound concentration (NSC-617145) used for the minimal signal control was 20 μM. The reaction was stopped by the addition of the ADP-Glo Kit components (Promega; Madison, WI) as directed and the relative luminescence units (RLU) were read on an Envision 2104 (Perkin Elmer; Waltham, MA).
% inhibition calculation:
% INH=(RLU MAX−RLU sample)/(RLU MAX−RLU MIN))×100
Where RLU=relative luminescence units, sample=signal in sample well, and MIN and MAX are the respective minimum and maximum signal controls. Four-parameter IC50 fit equation:
Y=Bottom+(Top−Bottom)/(1+(IC50/X)^Hill Slope)
Where top and bottom are normally allowed to float but may be fixed at 100 or 0 respectively in a 3-parameter fit. Y is the % inhibition and X is the compound concentration.
Molecular Biology and virus production. The DNA encoding human Werner helicase (Uniprot Q14191, amino acids 517-1235 with L1074F point mutation) was generated with codon-optimization for E. coli expression and subcloned into the pFastBac vector with a TEV cleavable 8×His tag (WRN—BV08). The baculovirus from the expression plasmid WRN—BV08 was generated from transfection and amplification following the manufacturer's instructions.
Sf9 cells grown in SF900II media were infected with 1:200 WRN—BV08 P2 virus and incubated for protein expression for 72 h at 27° C. The WRN protein was purified using the following protocol. The cell pellets were thawed and resuspended in buffer A (50 mM Tris, pH 7.5, 500 mM NaCl, 1 mM TCEP, 10% Glycerol) supplemented with 0.5% CHAPS, 1 mM PMSF, […] Leupeptin, 1 μg/ml Pepstatin, and the Pierce Universal Nuclease and cocktail tablet. Cleared lysates were loaded onto a Ni Sepharose™ excel column and washed with buffer A and bound protein was eluted with buffer A supplemented with 300 mM imidazole. The eluted protein was dialyzed against buffer A and digested by His-tagged TEV (1:5 ratio) overnight at 4° C. ZnCl2 was added into the sample at final 15 μM before loading onto a second Ni Sepharose™ excel column. Untagged WRN protein was eluted from the column with buffer A supplemented with 20 mM imidazole, dialyzed overnight into buffer B (50 mM Tris, pH 7.5, 1 mM TCEP, 10% Glycerol) supplemented with 150 mM NaCl and loaded onto a Heparin column. Proteins were eluted with a step gradient of buffer B supplemented with 150 mM, 200 mM, 300 mM and 500 mM NaCl. […]

[2] = test system: p21 induction in HCT 116 cells; test: p21 induction in cells (In-Cell Western, p21/GAPDH ratio); format: cell-based; conditions: 24 h compound incubation, read-out: p21_EC50
In short: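 HCT 116 cells treated 24 h at 37° C with 11-point, 2-fold dilutions typically from 10 μM, in duplicate. Fixed cells co-stained for p21 (800 nm) and GAPDH (700 nm) by In-Cell Western. p21/GAPDH ratio normalised between DMSO and reference WRN inhibitor controls, and EC50 obtained by nonlinear regression.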

IC50 [1] [nM]	EC50 ([2]; Homo sapiens) [nM]	EC50 [2] [nM]	SMILES
≤ 5	≤ 500	–	CCc1c(N2CCN(C(=O)c3ncnc(C)c3O)[C@H]3CC[C@@H]32)c(=O)c2nn([C@@H]3CC3(F)F)nc2n1CC(=O)Nc1ccc(C(F)(F)F)cc1Cl (single isomer, unassigned) [Compound I-215]
5 to 50	500 to 2000	–	CCc1c(N2CCN(C(=O)c3ncnc(C)c3O)C3CCC[C@H]32)c(=O)c2nn(-c3ccnc(OC)c3)nc2n1CC(=O)NC12CC(C(C)C)(C1)C2 (stereo in doubt) [Compound I-76, rel-2-{6-[(4aR,7aS)-4-(5-hydroxy-6-methylpyrimidine-4-carbonyl)-octahydro-1H-cyclopenta[b]pyrazin-1-yl]-5-ethyl-2-(2-methoxypyridin-4-yl)-7-oxo-2H,4H,7H-[1,2,3]triazolo[4,5-b]pyridin-4-yl}-N-[3-(propan-2-yl)bicyclo[1.1.1]pentan-1-yl]acetamide]
5 to 50	–	≤ 500	CCc1c(N2CCN(C(=O)c3ncnc(C)c3O)CC2)c(=O)c2nn(-c3ccnc(OC)c3)nc2n1CC(=O)Nc1ccc(C(F)(F)F)cc1Cl [Compound I-1, N-(2-chloro-4-(trifluoromethyl)phenyl)-2-(5-ethyl-6-(4-(5-hydroxy-6-methylpyrimidine-4-carbonyl)piperazin-1-yl)-2-(2-methoxypyridin-4-yl)-7-oxo-2,7-dihydro-4H-[1,2,3]triazolo[4,5-b]pyridin-4-yl)acetamide]
5 to 50	–	≤ 500	CCc1c(N2CCN(C(=O)c3c(O)ccc4ncoc34)CC2)c(=O)c2nn(-c3ccnc(OC)c3)nc2n1CC(=O)NC12CC(C(F)(F)F)(C1)C2 [Compound I-3, 2-(5-ethyl-6-(4-(6-hydroxybenzo[d]oxazole-7-carbonyl)piperazin-1-yl)-2-(2-methoxypyridin-4-yl)-7-oxo-2,7-dihydro-4H-[1,2,3]triazolo[4,5-b]pyridin-4-yl)-N-(3-(trifluoromethyl)bicyclo[1.1.1]pentan-1-yl)acetamide]
5 to 50	–	≤ 500	CCc1c(N2CCN(C(=O)c3c(O)ccc4ncoc34)[C@H]3CC[C@@H]32)c(=O)c2nn(-c3ccnc(OC)c3)nc2n1CC(=O)NC12CC(C(F)(F)F)(C1)C2 [Compound I-4, 2-(5-ethyl-6-((1S,6S)-5-(6-hydroxybenzo[d]oxazole-7-carbonyl)-2,5-diazabicyclo[4.2.0]octan-2-yl)-2-(2-methoxypyridin-4-yl)-7-oxo-2,7-dihydro-4H-[1,2,3]triazolo[4,5-b]pyridin-4-yl)-N-(3-(trifluoromethyl)bicyclo[1.1.1]pentan-1-yl)acetamide]
5 to 50	–	500 to 2000	CCc1c(N2CCN(C(=O)c3ncnc(C)c3O)CC2)c(=O)c2nn(-c3ccnc(OC)c3)nc2n1CC(=O)NC12CC(C(F)(F)F)(C1)C2 [Compound I-5, 2-(5-ethyl-6-(4-(5-hydroxy-6-methylpyrimidine-4-carbonyl)piperazin-1-yl)-2-(2-methoxypyridin-4-yl)-7-oxo-2,7-dihydro-4H-[1,2,3]triazolo[4,5-b]pyridin-4-yl)-N-(3-(trifluoromethyl)bicyclo[1.1.1]pentan-1-yl)acetamide]
≤ 5	≤ 500	–	CCc1c(N2CCN(C(=O)c3ncnc(C)c3O)CC2)c(=O)c2nn(-c3ccnc(C)c3)nc2n1CC(=O)Nc1ccc(C(F)(F)F)cc1Cl [Compound I-7, N-(2-chloro-4-(trifluoromethyl)phenyl)-2-(5-ethyl-6-(4-(5-hydroxy-6-methylpyrimidine-4-carbonyl)piperazin-1-yl)-2-(2-methylpyridin-4-yl)-7-oxo-2,7-dihydro-4H-[1,2,3]triazolo[4,5-b]pyridin-4-yl)acetamide]
≤ 5	≤ 500	–	CCc1c(N2CCN(C(=O)c3ncnc(C)c3O)CC2)c(=O)c2nn(-c3ccn(C4CC4)n3)nc2n1CC(=O)Nc1ccc(C(F)(F)F)cc1Cl [Compound I-8, N-(2-chloro-4-(trifluoromethyl)phenyl)-2-(2-(1-cyclopropyl-1H-pyrazol-3-yl)-5-ethyl-6-(4-(5-hydroxy-6-methylpyrimidine-4-carbonyl)piperazin-1-yl)-7-oxo-2,7-dihydro-4H-[1,2,3]triazolo[4,5-b]pyridin-4-yl)acetamide]
